Measured values taken from PubChem BioAssay AID256 (DTP/NCI, 2004).
Several values for one entry are separate records, joined by “and”; a condition that tells them apart may be missing. Equal values may be shown once. Inconclusive results and toxic doses are left out. Rule for the calls: active = survival T/C of 150% or more; inactive = T/C below 125% in these data.

Test system: CD2F1 mice, L1210 leukemia ip, survival T/C
Assay: NCI In Vivo Anticancer Drug Screen. Data for tumor model L1210 Leukemia (intraperitoneal) in CD2F1 (CDF1) mice
Details: higher = longer survival
How it was run: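 In this screen, transplantable tumors were grown in mice given either the compound or its vehicle. Results were expressed as the treated measurement relative to the control measurement.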

[1] = endpoint: mean survival time, dose: 50.0 mg/kg/injection, schedule: Q01DX001 (ip), vehicle: Klucel (hydroxypropylcellulose) (HPC)
[2] = endpoint: mean survival time, dose: 100.0 mg/kg/injection, schedule: Q01DX001 (ip), vehicle: Klucel (hydroxypropylcellulose) (HPC)
[3] = endpoint: mean survival time, dose: 200.0 mg/kg/injection, schedule: Q01DX001 (ip), vehicle: Klucel (hydroxypropylcellulose) (HPC)
[4] = endpoint: mean survival time, dose: 50.0 mg/kg/injection, schedule: Q01DX009 (ip), vehicle: saline
[5] = endpoint: mean survival time, dose: 100.0 mg/kg/injection, schedule: Q01DX009 (ip), vehicle: saline
[6] = endpoint: mean survival time, dose: 100.0 mg/kg/injection, schedule: Q01DX001 (ip), vehicle: saline with Tween-80
[7] = endpoint: mean survival time, dose: 100.0 mg/kg/injection, schedule: Q01DX009 (ip), vehicle: saline with Tween-80
[8] = endpoint: mean survival time, dose: 100.0 mg/kg/injection, schedule: Q04DX003 (ip), vehicle: saline with Tween-80
[9] = endpoint: mean survival time, dose: 200.0 mg/kg/injection, schedule: Q01DX001 (ip), vehicle: saline with Tween-80
[10] = endpoint: mean survival time, dose: 200.0 mg/kg/injection, schedule: Q01DX009 (ip), vehicle: saline with Tween-80
[11] = endpoint: mean survival time, dose: 200.0 mg/kg/injection, schedule: Q04DX003 (ip), vehicle: saline with Tween-80
[12] = endpoint: mean survival time, dose: 400.0 mg/kg/injection, schedule: Q01DX001 (ip), vehicle: saline with Tween-80
[13] = endpoint: mean survival time, dose: 400.0 mg/kg/injection, schedule: Q01DX009 (ip), vehicle: saline with Tween-80
[14] = endpoint: mean survival time, dose: 400.0 mg/kg/injection, schedule: Q04DX003 (ip), vehicle: saline with Tween-80
[15] = endpoint: mean survival time, dose: 50.0 mg/kg/injection, schedule: Q01DX005 (ip), vehicle: water
[16] = endpoint: mean survival time, dose: 100.0 mg/kg/injection, schedule: Q01DX005 (ip), vehicle: water
[17] = endpoint: mean survival time, dose: 200.0 mg/kg/injection, schedule: Q01DX005 (ip), vehicle: water

Measured: T/C

CCOC(=O)c1oc(C)nc1C
inactive: endpoint: mean survival time, dose: 12.5 mg/kg/injection, schedule: Q01DX001 (ip), vehicle: Klucel (hydroxypropylcellulose) (HPC) 90 % of control | endpoint: mean survival time, dose: 25.0 mg/kg/injection, schedule: Q01DX001 (ip), vehicle: Klucel (hydroxypropylcellulose) (HPC) 104 % of control | [1] 98 % of control | [2] 101 % of control | [3] 98 % of control

CC1C2CCC(C2)C1CO (stereo unspecified)
inactive: [4] 102 % of control | [5] 98 % of control | endpoint: mean survival time, dose: 200.0 mg/kg/injection, schedule: Q01DX009 (ip), vehicle: saline 104 % of control

O=[N+]([O-])c1ccc(C2N(Cc3ccc(Cl)cc3)CCN2Cc2ccc(Cl)cc2)cc1
inactive: [6] 92 % of control | [7] 95 % of control | [8] 98 % of control | [9] 96 % of control | [10] 88 % of control | [11] 98 % of control | [12] 93 % of control | [13] 91 % of control | [14] 90 % of control

Nc1ncnc2c1c1c(=O)[nH]c(=S)[nH]c1n2C1OC(CO)C(O)C1O (stereo unspecified)
inactive: endpoint: mean survival time, dose: 25.0 mg/kg/injection, schedule: Q01DX005 (ip), vehicle: water 94 % of control | [15] 100 % of control | [16] 103 % of control | [17] 105 % of control | endpoint: mean survival time, dose: 400.0 mg/kg/injection, schedule: Q01DX005 (ip), vehicle: water 114 % of control

O=C1COC(C(Cl)(Cl)Cl)CN1 (stereo unspecified)
inactive: [7] 98 % of control | [8] 102 % of control | [10] 95 % of control | [11] 100 % of control | [13] 102 % of control | [14] 104 % of control

C=CCS(=O)(=O)O
inactive: endpoint: mean survival time, dose: 100.0 mg/kg/injection, schedule: Q01DX009 (ip), vehicle: saline sonified 96 % of control | endpoint: mean survival time, dose: 100.0 mg/kg/injection, schedule: Q04DX003 (ip), vehicle: saline 100 % of control | endpoint: mean survival time, dose: 200.0 mg/kg/injection, schedule: Q01DX009 (ip), vehicle: saline sonified 96 % of control | endpoint: mean survival time, dose: 200.0 mg/kg/injection, schedule: Q04DX003 (ip), vehicle: saline 107 % of control | endpoint: mean survival time, dose: 400.0 mg/kg/injection, schedule: Q01DX009 (ip), vehicle: saline sonified 96 % of control | endpoint: mean survival time, dose: 400.0 mg/kg/injection, schedule: Q04DX003 (ip), vehicle: saline 107 % of control

OC1COC(C(/C=N/Nc2ccccc2)=N/Nc2ccccc2)C1O (stereo unspecified)
inactive: endpoint: median survival time, dose: 25.0 mg/kg/injection, schedule: Q01DX005 (ip), vehicle: distilled water + Tween-80 97 % of control | endpoint: median survival time, dose: 50.0 mg/kg/injection, schedule: Q01DX005 (ip), vehicle: distilled water + Tween-80 94 % of control | endpoint: median survival time, dose: 100.0 mg/kg/injection, schedule: Q01DX005 (ip), vehicle: distilled water + Tween-80 87 % of control | endpoint: median survival time, dose: 200.0 mg/kg/injection, schedule: Q01DX005 (ip), vehicle: distilled water + Tween-80 92 % of control | endpoint: median survival time, dose: 400.0 mg/kg/injection, schedule: Q01DX005 (ip), vehicle: distilled water + Tween-80 92 % of control

Cc1sc2ccccc2[n+]1C
inactive: endpoint: mean survival time, dose: 12.5 mg/kg/injection, schedule: Q01DX009 (ip), vehicle: Klucel (hydroxypropylcellulose) (HPC) 93 % of control | endpoint: mean survival time, dose: 25.0 mg/kg/injection, schedule: Q01DX009 (ip), vehicle: Klucel (hydroxypropylcellulose) (HPC) 95 % of control | endpoint: mean survival time, dose: 50.0 mg/kg/injection, schedule: Q01DX009 (ip), vehicle: Klucel (hydroxypropylcellulose) (HPC) 87 % of control

CCC(=O)Nc1ccccc1Cl
inactive: [8] 103 % of control | [11] 100 % of control | [14] 100 % of control

S=C1CCCCN1
inactive: endpoint: median survival time, dose: 25.0 mg/kg/injection, schedule: Q01DX009 (ip), vehicle: distilled water + alcohol 96 % of control | endpoint: median survival time, dose: 50.0 mg/kg/injection, schedule: Q01DX009 (ip), vehicle: distilled water + alcohol 94 % of control | endpoint: median survival time, dose: 100.0 mg/kg/injection, schedule: Q01DX009 (ip), vehicle: distilled water + alcohol 106 % of control | endpoint: median survival time, dose: 200.0 mg/kg/injection, schedule: Q01DX009 (ip), vehicle: distilled water + alcohol 112 % of control

N=c1c2ncn(C3OC(CO)C(O)C3O)c2ncn1N (stereo unspecified)
inactive: [15] 101 % of control | [16] 101 % of control | [17] 114 % of control

O=C1CN(c2ccccc2)C(=O)C1C(=O)Nc1ccc(Cl)c(Cl)c1 (stereo unspecified)
inactive: endpoint: median survival time, dose: 25.9 mg/kg/injection, schedule: Q01DX005 (ip), vehicle: saline with Tween-80 104 % of control | endpoint: median survival time, dose: 30.0 mg/kg/injection, schedule: Q01DX005 (ip), vehicle: saline with Tween-80 97 % of control | endpoint: median survival time, dose: 43.0 mg/kg/injection, schedule: Q01DX005 (ip), vehicle: saline with Tween-80 101 % of control and 104 % of control | endpoint: median survival time, dose: 43.2 mg/kg/injection, schedule: Q01DX005 (ip), vehicle: saline with Tween-80 98 % of control and 104 % of control | endpoint: median survival time, dose: 60.0 mg/kg/injection, schedule: Q01DX005 (ip), vehicle: saline with Tween-80 102 % of control

OC(c1ccccc1)(c1ccccc1)c1nc2ccccc2o1
inactive: [7] 107 % of control | [8] 96 % of control | [10] 100 % of control | [11] 91 % of control | [14] 95 % of control

O=C(Cc1ccccc1)c1ccc(Cl)cc1
inactive: [6] 101 % of control | [9] 88 % of control | [12] 93 % of control

CCOC(=O)c1cnc(SCc2ccccc2)nc1Nc1ccccc1
inactive: [6] 93 % of control | [9] 88 % of control | [12] 88 % of control

O=C(c1ccc(-c2ccccc2)cc1)C1CCCCC1
inactive: [7] 94 % of control | [10] 97 % of control | [13] 86 % of control

O=c1[nH]c2c(ncn2C2OC3COP(=O)(O)OC3C2O)c2nccn12 (stereo unspecified)
inactive: endpoint: mean survival time, dose: 12.5 mg/kg/injection, schedule: Q01DX005 (ip), vehicle: distilled water + Tween-80 97 % of control | endpoint: mean survival time, dose: 25.0 mg/kg/injection, schedule: Q01DX005 (ip), vehicle: distilled water + Tween-80 97 % of control | endpoint: mean survival time, dose: 50.0 mg/kg/injection, schedule: Q01DX005 (ip), vehicle: distilled water + Tween-80 97 % of control | endpoint: mean survival time, dose: 100.0 mg/kg/injection, schedule: Q01DX005 (ip), vehicle: distilled water + Tween-80 100 % of control

CCOC(=O)C1C2CC(O)C(O)CC21 (stereo unspecified)
inactive: endpoint: median survival time, dose: 25.0 mg/kg/injection, schedule: Q04DX003 (ip), vehicle: saline with Tween-80 90 % of control | endpoint: median survival time, dose: 50.0 mg/kg/injection, schedule: Q04DX003 (ip), vehicle: saline with Tween-80 90 % of control

CC(=O)C(C(C)=O)C1C=CCC1 (stereo unspecified)
inactive: [7] 107 % of control | [10] 104 % of control | [13] 101 % of control

CC(C)c1ccc(NC(=O)Nc2cccc3ccccc23)cc1
inactive: [8] 102 % of control | [11] 91 % of control | [14] 91 % of control

CN(C)Cc1cccc(CN(C)C)c1O
inactive: endpoint: mean survival time, dose: 100.0 mg/kg/injection, schedule: Q01DX001 (ip), vehicle: saline 106 % of control

OC(Cc1cnc2ccccc2n1)(C(F)(F)F)C(F)(F)F
inactive: [8] 94 % of control | [11] 98 % of control | [14] 103 % of control

CC(=O)NC(CSC(c1ccccc1)(c1ccccc1)c1ccccc1)C(=O)O (stereo unspecified)
inactive: endpoint: mean survival time, dose: 25.0 mg/kg/injection, schedule: Q01DX009 (ip), vehicle: saline 101 % of control | [4] 100 % of control | [5] 101 % of control

CC(C)CC(NC(=O)CF)C(=O)O (stereo unspecified)
inactive: endpoint: mean survival time, dose: 0.31 mg/kg/injection, schedule: Q01DX009 (ip), vehicle: saline 98 % of control and 108 % of control | endpoint: mean survival time, dose: 0.62 mg/kg/injection, schedule: Q01DX009 (ip), vehicle: saline 98 % of control | endpoint: mean survival time, dose: 0.63 mg/kg/injection, schedule: Q01DX009 (ip), vehicle: saline 111 % of control | endpoint: mean survival time, dose: 1.25 mg/kg/injection, schedule: Q01DX009 (ip), vehicle: saline 98 % of control and 106 % of control | endpoint: mean survival time, dose: 2.5 mg/kg/injection, schedule: Q01DX009 (ip), vehicle: saline 98 % of control and 100 % of control | endpoint: mean survival time, dose: 5.0 mg/kg/injection, schedule: Q01DX009 (ip), vehicle: saline 98 % of control and 110 % of control

CC1(C)N=C(N)N=C(N)N1c1cccc(/C=C(\C#N)c2ccccc2)c1
inactive: endpoint: mean survival time, dose: 100.0 mg/kg/injection, schedule: Q04DX002 (ip), vehicle: Klucel (hydroxypropylcellulose) (HPC) 98 % of control | endpoint: mean survival time, dose: 200.0 mg/kg/injection, schedule: Q04DX002 (ip), vehicle: Klucel (hydroxypropylcellulose) (HPC) 95 % of control

C=C(C)CS(=O)(=O)Cc1ccccc1
inactive: [1] 96 % of control | [2] 102 % of control | [3] 102 % of control
